Consider one molecule from paper PMC5428041, “Dynamic equilibrium on DNA defines transcriptional regulation of a multidrug binding transcriptional repressor, LmrR” (Scientific Reports, 2017).

The target in this test is T1, LmrR (Lactococcus cremoris, UniProt A2RI36).
T1 construct: gene llmg_0323; C-terminal His6-tagged LmrR (homodimer)
The experiment in a line: ITC ([…] stoichiometry, […] °C); supported by NMR titration. Format: binding.

T1 sequence (A2RI36 entry or part of it): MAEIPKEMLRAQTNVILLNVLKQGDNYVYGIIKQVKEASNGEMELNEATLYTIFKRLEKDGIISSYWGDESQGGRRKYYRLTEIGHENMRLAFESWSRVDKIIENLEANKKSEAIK

Take `Cc1cc2nc3c(=O)[nH]c(=O)nc-3n(C[C@H](O)[C@H](O)[C@H](O)CO)c2cc1C` [riboflavin]: the affinity, expressed as Kd, was 330 nM.
